Reference: US20260001876A1, “Compounds and Their Use as PDE4 Activators” (Mironid Limited, priority 2022, published 2026)

test system: m-IMCD3 cells; experiment: Inhibition of PGE2-stimulated in vitro cyst formation in m-IMCD3 cells (3D culture); format: cell-based; details: Mus musculus, mIMCD3, 144 h; 3 μM; mean cyst area; 100% for (DMSO + PGE2) and 0% for DMSO control; 6 days of culture; read-out: % Cyst area* after incubation with 3 μM test compound
Procedure: HEK 293 and MDCK cells (Public Health England, Cell Culture Collections) were maintained in Dulbecco's Modified Eagle's Medium (DMEM) supplemented with 10% (v/v) fetal bovine serum (FBS) (Seralab), 2 mM L-glutamine and 100 U/mL penicillin streptomycin cocktail (ThermoFisher); termed complete media. Clonal HEK 293 cell lines were maintained in complete media supplemented with 0.6 mg/ml G418 (Enzo Life Sciences). Mouse inner medullary collecting duct (m-IMCD3) cells [American Type Culture Collection (ATCC)] were maintained in media consisting of DMEM/Hams F-12 50/50 Mix (DMEM F12; Corning) supplemented with penicillin streptomycin cocktail (100 U/mL) and FBS (10% v/v) (DMEM F12-10% FBS).
Experiment 3: Inhibition of In Vitro Cyst Formation in m-IMCD3 Cells Treated with PDE4 Long Form Activators
The mouse Inner Medullary Collecting Duct cell line (m-IMCD3) spontaneously forms cystic spheroids in 3D culture with a Type 1 collagen/Matrigel extracellular matrix. This process can be stimulated with agents which raise intracellular cAMP and is used as an in vitro model for the formation of cystic structures in the kidneys of patients with ADPKD.
Rat Collagen I (Fisher Scientific) is prepared on ice by neutralising with 1M NaOH and diluting with a 2× volume of DMEM/F12+10% FBS. This is mixed 1:1.1 with ice cold Matrigel (Corning) for coating plates (coating mix), and 1:0.93 with Matrigel for cell plating (plating mix).
The assay is conducted in the wells of a 96-well plate culture dish using a total volume of 130 μL of collagen/Matrigel/DMEM F12-10% FBS suspension in growth media for each matrix plug per individual well. Initially, 30 μL of collagen/Matrigel/DMEM F12-10% FBS (coating mix) is added into the well of a 96 well plate and the collagen is set to a gel by incubating at 37° C. for at least 15 minutes. A second layer of 100 μL collagen/Matrigel suspension (plating mix) containing m-IMCD3 cells (2.75×10^6 m-IMCD3 cells per 96-well plate) is layered over the coating mix and the collagen/Matrigel/cell mix again set to a gel by incubating at 37° C. Cell cultures are maintained at 37° C. in an atmosphere of 5% CO2, 95% air.
Between 18 and 24 h after plating, test compound(s) as DMSO stock solutions [0.1% (v/v) final DMSO concentration] and PGE2 (100 nM final concentration) in DMEM F12-10% FBS are added in quadruplicate wells per condition. Media, together with the test compound and PGE2 are replenished after 2 or 3 days. After 6 days of culture z stack images of the wells are captured using the Nikon Eclipse Ti2-E microscope. Nikon General Analysis software is used to measure the following parameters in each well: the mean cyst area, the number of cysts, and the total cyst area.
PDE4 long form activators inhibited in vitro cyst formation in m-IMCD3 cells. Data are shown in Table 4 as mean cyst area (%), compared to 100% for (DMSO+PGE2) and 0% for DMSO control.

Structure (SMILES) | activity at 3 µM
O=C(Cc1ccccc1)N1CCc2nc(N3CC4CCC(C3)N4)ncc2C1 [Example 135, 1-(2-(3,8-diazabicyclo[3.2.1]octan-3-yl)-7,8-dihydropyrido[4,3-d]pyrimidin-6(5H)-yl)-2-phenylethan-1-one] | -5%
N#Cc1ccc(CC(=O)N2CCc3nc(N4CCNCC4)ncc3C2)cc1 [Example 137, 4-(2-oxo-2-(2-(piperazin-1-yl)-7,8-dihydropyrido[4,3-d]pyrimidin-6(5H)-yl)ethyl)benzonitrile] | 13%
N#Cc1ccc(CC(=O)N2CCc3nc(N4CC5CCC(C4)N5)ncc3C2)cc1 [Example 138, 4-(2-(2-(3,8-diazabicyclo[3.2.1]octan-3-yl)-7,8-dihydropyrido[4,3-d]pyrimidin-6(5H)-yl)-2-oxoethyl)benzonitrile] | 0%
O=C(Cc1ccc(F)cc1)N1CCc2nc(N3CCNCC3)ncc2C1 [Example 140, 2-(4-fluorophenyl)-1-(2-(piperazin-1-yl)-7,8-dihydropyrido[4,3-d]pyrimidin-6(5H)-yl)ethan-1-one] | 6%
O=C(Cc1ccc(F)cc1)N1CCc2nc(N3CC4CCC(C3)N4)ncc2C1 [Example 141, 1-(2-(3,8-diazabicyclo[3.2.1]octan-3-yl)-7,8-dihydropyrido[4,3-d]pyrimidin-6(5H)-yl)-2-(4-fluorophenyl)ethan-1-one] | -2%
O=C(CC1CCCC1)N1CCc2nc(N3C4CCC3CNC4)ncc2C1 [Example 142, 1-(2-(3,8-diazabicyclo[3.2.1]octan-8-yl)-7,8-dihydropyrido[4,3-d]pyrimidin-6(5H)-yl)-2-cyclopentylethan-1-one] | 26%
O=C(CC1CCCC1)N1CCc2nc(N3CCNCC3)ncc2C1 [Example 143, 2-cyclopentyl-1-(2-(piperazin-1-yl)-7,8-dihydropyrido[4,3-d]pyrimidin-6(5H)-yl)ethan-1-one] | 22%
O=C(CC1CCCCC1)N1CCc2nc(N3CCNCC3)ncc2C1 [Example 145, 2-cyclohexyl-1-(2-(piperazin-1-yl)-7,8-dihydropyrido[4,3-d]pyrimidin-6(5H)-yl)ethan-1-one] | 15%
CC(C)(C)CC(=O)N1CCc2nc(N3C4CCC3CNC4)ncc2C1 [Example 146, 1-(2-(3,8-diazabicyclo[3.2.1]octan-8-yl)-7,8-dihydropyrido[4,3-d]pyrimidin-6(5H)-yl)-3,3-dimethylbutan-1-one] | 22%
O=C(CC1CCCC1)N1CCc2cnc(N3C4CCC3CNC4)nc2C1 [Example 148, 1-(2-(3,8-diazabicyclo[3.2.1]octan-8-yl)-5,8-dihydropyrido[3,4-d]pyrimidin-7 (6H)-yl)-2-cyclopentylethan-1-one] | 7%
CC(C)(C)CC(=O)N1CCc2nc(N3CCNCC3)ccc2C1 [Example 149, 3,3-dimethyl-1-(2-(piperazin-1-yl)-7,8-dihydro-1,6-naphthyridin-6(5H)-yl) butan-1-one] | 11%
O=C(CC1CCCC1)N1CCc2nc(N3CC4CCC3CN4)ccc2C1 (centres unmarked) [Example 153, 1-(2-(2,5-diazabicyclo[2.2.2]octan-2-yl)-7,8-dihydro-1,6-naphthyridin-6(5H)-yl)-2-cyclopentylethan-1-one] | 2%
O=C(CC1CCCC1)N1CCc2nc(N3CC4CCC(C3)N4)ccc2C1 [Example 154, 1-(2-(3,8-diazabicyclo[3.2.1]octan-3-yl)-7,8-dihydro-1,6-naphthyridin-6(5H)-yl)-2-cyclopentylethan-1-one] | -6%
O=C(CC1CCCC1)N1CCc2nc(N3C4CNCC3CC(O)C4)ccc2C1 (centres unmarked) [Example 157, 2-cyclopentyl-1-(2-(7-hydroxy-3,9-diazabicyclo[3.3.1]nonan-9-yl)-7,8-dihydro-1,6-naphthyridin-6(5H)-yl)ethan-1-one] | 10%
CCN1CCN(c2ccc3c(n2)CCN(S(=O)(=O)Cc2ccc(F)cc2)C3)CC1 [Example 161, 2-(4-ethylpiperazin-1-yl)-6-((4-fluorobenzyl)sulfonyl)-5,6,7,8-tetrahydro-1,6-naphthyridine] | 0%
O=S(=O)(Cc1ccccc1)N1CCc2nc(N3CCNCC3)ccc2C1 [Example 164, 6-(benzylsulfonyl)-2-(piperazin-1-yl)-5,6,7,8-tetrahydro-1,6-naphthyridine] | 0%
CCN1CCN(c2ccc3c(n2)CCN(S(=O)(=O)Cc2ccccc2)C3)CC1 [Example 165, 6-(benzylsulfonyl)-2-(4-ethylpiperazin-1-yl)-5,6,7,8-tetrahydro-1,6-naphthyridine] | -1%
CCN1CC2CCC(C1)N2c1ccc2c(n1)CCN(C(=O)N[C@H]1CCOc3ccccc31)C2 [Example 167, N—((S)-chroman-4-yl)-2-(3-ethyl-3,8-diazabicyclo[3.2.1]octan-8-yl)-7,8-dihydro-1,6-naphthyridine-6(5H)-carboxamide] | -8%
O=C(N[C@H]1CCOc2ccccc21)N1CCc2nc(N3CCNCC3)ccc2C1 [Example 168, (S)—N-(chroman-4-yl)-2-(piperazin-1-yl)-7,8-dihydro-1,6-naphthyridine-6(5H)-carboxamide] | 4%
CCN1CCN(c2ccc3c(n2)CCN(C(=O)N[C@H]2CCOc4ccccc42)C3)CC1 [Example 169, (S)—N-(chroman-4-yl)-2-(4-ethylpiperazin-1-yl)-7,8-dihydro-1,6-naphthyridine-6(5H)-carboxamide] | -4%
CCN1CC2CCC(C1)N2c1ccc2c(n1)CCN(C(=O)N[C@@H]1CCOc3ccccc31)C2 [Example 170, N—((R)-chroman-4-yl)-2-(3-ethyl-3,8-diazabicyclo[3.2.1]octan-8-yl)-7,8-dihydro-1,6-naphthyridine-6(5H)-carboxamide] | 23%
CCN1CC2CCC(C1)N2c1ccc2c(n1)CCN(C(=O)COc1ccc(F)cc1)C2 [Example 171, 1-(2-(3-ethyl-3,8-diazabicyclo[3.2.1]octan-8-yl)-7,8-dihydro-1,6-naphthyridin-6(5H)-yl)-2-(4-fluorophenoxy)ethan-1-one] | 4%
CCCN1CC2CCC(C1)N2c1ccc2c(n1)CCN(C(=O)COc1ccc(F)cc1)C2 [Example 172, 2-(4-fluorophenoxy)-1-(2-(3-propyl-3,8-diazabicyclo[3.2.1]octan-8-yl)-7,8-dihydro-1,6-naphthyridin-6(5H)-yl)ethan-1-one] | 6%
COCCN1CC2CCC(C1)N2c1ccc2c(n1)CCN(C(=O)COc1ccc(F)cc1)C2 [Example 173, 2-(4-fluorophenoxy)-1-(2-(3-(2-methoxyethyl)-3,8-diazabicyclo[3.2.1]octan-8-yl)-7,8-dihydro-1,6-naphthyridin-6(5H)-yl)ethan-1-one] | 3%
COCCCN1CC2CCC(C1)N2c1ccc2c(n1)CCN(C(=O)COc1ccc(F)cc1)C2 [Example 174, 2-(4-fluorophenoxy)-1-(2-(3-(3-methoxypropyl)-3,8-diazabicyclo[3.2.1]octan-8-yl)-7,8-dihydro-1,6-naphthyridin-6(5H)-yl)ethan-1-one] | 1%
O=C(Cc1ccccc1)N1CCc2nc(N3CCNCC3)ccc2C1 [Example 175, 2-phenyl-1-(2-(piperazin-1-yl)-7,8-dihydro-1,6-naphthyridin-6(5H)-yl)ethan-1-one] | 2%
O=C(Cc1ccc(F)cc1)N1CCc2nc(N3CCNCC3)ccc2C1 [Example 176, 2-(4-fluorophenyl)-1-(2-(piperazin-1-yl)-7,8-dihydro-1,6-naphthyridin-6(5H)-yl)ethan-1-one] | -2%
O=C(CC1CCCC1)N1CCc2cc(N3C4CCC3CNC4)cnc2C1 [Example 177, 1-(3-(3,8-diazabicyclo[3.2.1]octan-8-yl)-5,8-dihydro-1,7-naphthyridin-7 (6H)-yl)-2-cyclopentylethan-1-one] | 10%
O=C(CC1CCCC1)N1CCc2cc(N3C4CCC3CNC4)ncc2C1 [Example 178, 1-(6-(3,8-diazabicyclo[3.2.1]octan-8-yl)-3,4-dihydro-2,7-naphthyridin-2 (1H)-yl)-2-cyclopentylethan-1-one] | 1%
